{"source": "patent US20210121414A1", "about": "“METHOD FOR PRODUCING A PHARMACEUTICAL COMPOSITION OF POLYMERIC NANOPARTICLES FOR TREATING NEUROPATHIC PAIN CAUSED BY […] COMPRESSION” (UNIVERSIDAD DE SEVILLA, priority 2015, published 2021)", "key": {"[1]": {"conditions": "cited from earlier work"}, "central nervous system": {"tested_on": "central nervous system", "conditions": "rats; cited from earlier work"}, "[2]": {"tested_on": "Chronic constriction injury (CCI) model of mononeuropathy, mechanical hyperalgesia", "experiment": "Paw-pinch test of mechanical hyperalgesia in chronic constriction injury (CCI) rats after single oral administration", "assay_type": "in vivo, Harlan Sprague-Dawley male albino rats", "conditions": "CB13 alone", "procedure": "Harlan Sprague-Dawley male albino rats (230-350 g), provided by the University of Cádiz Animal Experimentation Unit registered under the number ES110120000210, were used. The animals were kept under standard housing conditions (21° C., 12h light-dark cycle, “ad libitum” water and food). All experiments were carried out in accordance with the ethical guidelines for working with experimental animals proposed by the International Association for the Study of Pain […] and by the Federation of Laboratory Animal Science Associations (FELASA).\nChronic constriction injury, (CCI) was used as a model of mononeuropathy since it is a model that correlates well with the symptoms presented in the patients (spontaneous pain, mechanical and thermal allodynia and hyperalgesia.\nNociceptive behavior was evaluated in the ipsi- and contralateral paw to the ligation for sciatic nerve […]. The presence of mechanical hyperalgesia was assessed by using the paw-pinch test. Thus, gradual, increasing pressure (starting with 30 g of pressure) was exerted on the rear part of the paw using a motorized device (Analgesia Meter 57215, UGO BASILE). The cut-off pressure was set at 250 g to prevent possible damage to the paw. Two measurements were taken on each paw, 5 minutes apart, and the average value was used for statistical purposes. Mechanical hyperalgesia appeared as the pressure on the paw decreased."}, "[3]": {"tested_on": "established mechanical hyperalgesia", "conditions": "cited from earlier work"}, "[4]": {"conditions": "cited from earlier work", "remark": "listed apart in the source"}}, "data": [{"smiles": "CCCCCOc1ccc(C(=O)c2cccc3ccccc23)c2ccccc12", "note": "[CB13, 1-naphthalenyl[4-(pentyloxy)-1-naphthalenyl]methanone]", "values": [{"measurement": "aqueous solubility", "setting": "[1]", "value": "0.001-0.002 mg/m L"}, {"measurement": "dose with significant CNS effects relative to the oral dose required to reverse hyperalgesia", "setting": "central nervous system", "value": 20, "unit": "times"}, {"measurement": "anti-hyperalgesic effect 9 hours after administration", "setting": "[2]; 9 hours", "value": "continued to be effective but to a lesser extent"}, {"measurement": "anti-hyperalgesic effect after 24 hours", "setting": "[2]; 24 hours", "value": "its effectiveness had disappeared"}, {"measurement": "antihyperalgesic activity in animal models", "setting": "[3]; animal models", "value": "powerful antihyperalgesic activity"}, {"measurement": "effect on established mechanical hyperalgesia", "setting": "[3]; oral administration and local injection into the hind paw, pig and rat", "value": "reverses the established mechanical hyperalgesia"}, {"measurement": "penetration into the brain", "setting": "[4]; in vivo", "value": "limited penetration into the brain"}, {"measurement": "absorption after oral administration", "setting": "[4]; oral", "value": "not completely absorbed"}]}]}
